Type in all cases: in vivo
One assay has as its system Lolium rigidum. In words: Pre-emergence herbicidal effect against LOLRI. The settings on record: 1280 g/ha, visual score after 3 weeks, 100% = plants have died, 0% = like control plants. An outline of the steps:
(§1)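 Percent herbicidal activity (100% = dead, 0% = as control) was rated by eye 3 weeks post-application in greenhouse pots of sandy loam, with treatment sprayed onto the covering soil before emergence.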

The subject of assay [1] is Digitaria sanguinalis. The assay is described as follows: Pre-emergence herbicidal effect against DIGSA. The settings on record: 1280 g/ha, visual score after 3 weeks, 100% = plants have died, 0% = like control plants. A digest of the protocol: as §1
The subject of assay [2] is Amaranthus retroflexus. In words: Pre-emergence herbicidal effect against AMARE. The settings on record: 1280 g/ha, visual score after 3 weeks, 100% = plants have died, 0% = like control plants. The text has this:
1. Pre-emergence herbicidal effect and crop plant compatibility Seeds of monocotyledonous and dicotyledonous weed plants and crop plants are laid out in sandy loam soil in wood-fibre pots and covered with soil. The compounds of the invention, formulated in the form of wettable powders (WP) or as emulsion concentrates (EC), are then applied to the surface of the covering soil as aqueous suspension or emulsion at a water application rate equating to 600 to 800 L/ha with addition of 0.2% wetting agent. After the treatment, the pots are placed in a greenhouse and kept under good growth conditions for the trial plants. The damage to the test plants is scored visually after a test period of 3 weeks by comparison with untreated controls (herbicidal activity in percent (%): 100% activity=the plants have died, 0% activity=like control plants). [table]

The test system of assay [3] is Poa annua. The assay is described as follows: Post-emergence herbicidal effect against POAAN. Particulars: 1280 g/ha, visual assessment about 3 weeks after treatment, 100% = plants have died, 0% = like control plants. An outline of the steps:
(§2)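 Percent herbicidal effect, judged visually against untreated plants about 3 weeks after treatment, where 100% means dead plants. Treatment was a foliar spray of WP or EC formulations (600 to 800 l/ha water, 0.2% wetting agent) on one-leaf-stage plants raised in sandy loam.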

In assay [4] the test system is Alopecurus myosuroides. The assay is described as follows: Post-emergence herbicidal effect against ALOMY. The settings on record: 1280 g/ha, visual score after about 3 weeks, 100% = plants have died, 0% = like control plants. A digest of the protocol: as §2
The subject of assay [5] is Poa annua. The assay is described as follows: Pre-emergence herbicidal effect against POAAN. The settings on record: 1280 g/ha, visual score after 3 weeks, 100% = plants have died, 0% = like control plants. A digest of the protocol:
as §1

Assay [6] deals with Stellaria media. In words: Post-emergence herbicidal effect against STEME. Particulars: 1280 g/ha, visual assessment about 3 weeks after treatment, 100% = plants have died, 0% = like control plants. An outline of the steps:
as §2

Assay [7] has as its system Stellaria media. The assay is described as follows: Pre-emergence herbicidal effect against STEME. Particulars: 1280 g/ha, visual score after 3 weeks, 100% = plants have died, 0% = like control plants. An outline of the steps:
as §1

For assay [8], the system named is Veronica persica. The assay is described as follows: Post-emergence herbicidal effect against VERPE. Particulars: 1280 g/ha, visual assessment about 3 weeks after treatment, 100% = plants have died, 0% = like control plants. A digest of the protocol: as §2
Assay [9] deals with Setaria viridis. The assay is described as follows: Pre-emergence herbicidal effect against SETVI. The settings on record: 1280 g/ha, visual score after 3 weeks, 100% = plants have died, 0% = like control plants. An outline of the steps:
as §1

Assay [10] deals with Amaranthus retroflexus. The assay is described as follows: Post-emergence herbicidal effect against AMARE. The settings on record: 1280 g/ha, visual assessment about 3 weeks after treatment, 100% = plants have died, 0% = like control plants. The protocol: (§3) [table] 2. Post-emergence herbicidal effect and crop plant compatibility Seeds of monocotyledonous and dicotyledonous weed and crop plants are laid out in sandy loam soil in wood-fibre pots, covered with soil and cultivated in a greenhouse under good growth conditions. 2 to 3 weeks after sowing, the test plants are treated at the one-leaf stage. The compounds of the invention, formulated in the form of wettable powders (WP) or as emulsion concentrates (EC), are then sprayed onto the green parts of the plants as aqueous suspension or emulsion at a water application rate equating to 600 to 800 l/ha with addition of 0.2% wetting agent. After the test plants have been left to stand in the greenhouse under optimal growth conditions for about 3 weeks, the action of the preparations is assessed visually in comparison to untreated controls (herbicidal action in percent (%): 100% activity=the plants have died, 0% activity=like control plants).

Assay [11] relates to Setaria viridis. In words: Post-emergence herbicidal effect against SETVI. Particulars: 1280 g/ha, visual assessment about 3 weeks after treatment, 100% = plants have died, 0% = like control plants. The protocol: as §3
Assay [12] relates to Veronica persica. The assay is described as follows: Pre-emergence herbicidal effect against VERPE. The settings on record: 1280 g/ha, visual score after 3 weeks, 100% = plants have died, 0% = like control plants. An outline of the steps:
as §1

For assay [13], the system named is Echinochloa crus-galli. In words: Post-emergence herbicidal effect against ECHCG. Particulars: 1280 g/ha, visual score after about 3 weeks, 100% = plants have died, 0% = like control plants. An outline of the steps: as §2
The next assay concerns Bassia scoparia. The assay is described as follows: Post-emergence herbicidal effect against KCHSC. The settings on record: 1280 g/ha, visual assessment about 3 weeks after treatment, 100% = plants have died, 0% = like control plants. A digest of the protocol: as §2
Assay [14] deals with Echinochloa crus-galli. The assay is described as follows: Pre-emergence herbicidal effect against ECHCG. The settings on record: 1280 g/ha, visual score after 3 weeks, 100% = plants have died, 0% = like control plants. An outline of the steps:
as §1

In assay [15] the test system is Tripleurospermum inodorum. In words: Post-emergence herbicidal effect against MATIN. The settings on record: 1280 g/ha, visual assessment about 3 weeks after treatment, 100% = plants have died, 0% = like control plants. A digest of the protocol:
as §2

Assay [16] has as its system Tripleurospermum inodorum. In words: Pre-emergence herbicidal effect against MATIN. Particulars: 1280 g/ha, visual score after 3 weeks, 100% = plants have died, 0% = like control plants. A digest of the protocol:
as §1

Assay [17] concerns Digitaria sanguinalis. In words: Post-emergence herbicidal effect against DIGSA. Particulars: 1280 g/ha, visual score after about 3 weeks, 100% = plants have died, 0% = like control plants. The protocol:
as §3

The subject of a further assay is Abutylon threophrasti. The assay is described as follows: Post-emergence herbicidal effect against ABUTH. Particulars: 1280 g/ha, visual assessment about 3 weeks after treatment, 100% = plants have died, 0% = like control plants. An outline of the steps: as §2
Assay [18] has as its system Alopecurus myosuroides. In words: Pre-emergence herbicidal effect against ALOMY. Particulars: 1280 g/ha, visual score after 3 weeks, 100% = plants have died, 0% = like control plants. A digest of the protocol:
as §1

As to `CCOC(=O)CSc1nn(-c2ccccc2F)c(-c2ccc(F)c(F)c2)c1C#N` [Example I-012], in the assay with Lolium rigidum, the “Pre-emergence action against LOLRI” value was 90%. For the same compound, in the assay on Digitaria sanguinalis [1], the “Pre-emergence action against DIGSA” value was determined as 100%. In addition, the “Pre-emergence action against AMARE” value in the assay with Amaranthus retroflexus [2] is listed as 100%. The “Post-emergence action against POAAN” value in the assay with Poa annua [3] turned out to be 100%. Moreover, the “Post-emergence action against ALOMY” value in the assay on Alopecurus myosuroides [4] worked out at 100%. The “Pre-emergence action against POAAN” value in the assay with Poa annua [5] is 100%. For the same compound, in the assay with Stellaria media [6], the “Post-emergence action against STEME” value worked out at 100%. In addition, the “Pre-emergence action against STEME” value in the assay with Stellaria media [7] was 100%. In addition, the “Post-emergence action against VERPE” value with Veronica persica [8] is 100%. Further, in the assay with Setaria viridis [9], the “Pre-emergence action against SETVI” value came out at 100%. Besides, the “Post-emergence action against AMARE” value with Amaranthus retroflexus [10] is 90%. For the same compound, the “Post-emergence action against SETVI” value with Setaria viridis [11] was found to be 90%. Also, the “Pre-emergence action against VERPE” value in the assay on Veronica persica [12] is on record as 100%. Further, in the assay with Echinochloa crus-galli [13], the “Post-emergence action against ECHCG” value was found to be 100%. Also, in the assay with Bassia scoparia, the “Post-emergence action against KCHSC” value worked out at 90%. The “Pre-emergence action against ECHCG” value with Echinochloa crus-galli [14] is recorded as 100%. For the same compound, the “Post-emergence action against MATIN” value in assay [15] stood at 90%. Also, the “Pre-emergence action against MATIN” value in assay [16] amounted to 100%. The “Post-emergence action against DIGSA” value in the assay with Digitaria sanguinalis [17] is listed as 100%.

As to `CCOC(=O)CSc1nn(-c2ccccc2F)c(-c2ccc(F)c(F)c2)c1Br` [Example I-002, Ethyl {[4-bromo-5-(3,4-difluorophenyl)-1-(2-fluorophenyl)-1H-pyrazol-3-yl]sulfanyl}acetate], the “Post-emergence action against ABUTH” value in the assay with Abutylon threophrasti turned out to be 90%. Further, in the assay on Lolium rigidum, the “Pre-emergence action against LOLRI” value was 100%. Moreover, in the assay on Digitaria sanguinalis [1], the “Pre-emergence action against DIGSA” value came to 90%. Moreover, the “Pre-emergence action against AMARE” value with Amaranthus retroflexus [2] was determined as 100%. The “Post-emergence action against ALOMY” value in the assay on Alopecurus myosuroides [4] amounted to 100%. Moreover, the “Pre-emergence action against POAAN” value in the assay with Poa annua [5] was determined as 100%. In the assay on Stellaria media [6], the “Post-emergence action against STEME” value came out at 100%. The “Pre-emergence action against STEME” value in the assay on Stellaria media [7] is reported as 100%. For the same compound, the “Post-emergence action against VERPE” value with Veronica persica [8] was determined as 90%. The “Pre-emergence action against SETVI” value with Setaria viridis [9] is reported as 100%. Besides, in the assay with Amaranthus retroflexus [10], the “Post-emergence action against AMARE” value was determined as 90%. In the assay on Setaria viridis [11], the “Post-emergence action against SETVI” value is 100%. Besides, the “Pre-emergence action against VERPE” value in the assay on Veronica persica [12] was 100%. Moreover, the “Post-emergence action against MATIN” value in assay [15] stood at 100%. Further, the “Pre-emergence action against MATIN” value in assay [16] came out at 100%. The “Post-emergence action against DIGSA” value with Digitaria sanguinalis [17] stood at 100%. Moreover, the “Pre-emergence action against ALOMY” value in the assay with Alopecurus myosuroides [18] was 90%.

As for `CCOC(=O)CSc1nn(-c2ccccc2F)c(-c2ccc(F)c(F)c2)c1Cl` [Example I-001], the “Post-emergence action against ABUTH” value with Abutylon threophrasti is listed as 90%. For the same compound, the “Pre-emergence action against LOLRI” value in the assay with Lolium rigidum was 100%. Moreover, in the assay with Digitaria sanguinalis [1], the “Pre-emergence action against DIGSA” value was found to be 100%. Besides, the “Pre-emergence action against AMARE” value in the assay with Amaranthus retroflexus [2] came out at 100%. Also, in the assay with Poa annua [3], the “Post-emergence action against POAAN” value is on record as 100%. In addition, the “Post-emergence action against ALOMY” value with Alopecurus myosuroides [4] worked out at 100%. For the same compound, the “Pre-emergence action against POAAN” value in the assay with Poa annua [5] is on record as 100%. In addition, the “Post-emergence action against STEME” value in the assay on Stellaria media [6] is recorded as 100%. For the same compound, in the assay on Stellaria media [7], the “Pre-emergence action against STEME” value amounted to 100%. In addition, the “Post-emergence action against VERPE” value with Veronica persica [8] was 100%. Also, in the assay on Setaria viridis [9], the “Pre-emergence action against SETVI” value is recorded as 100%. For the same compound, in the assay on Amaranthus retroflexus [10], the “Post-emergence action against AMARE” value is reported as 90%. Besides, in the assay on Setaria viridis [11], the “Post-emergence action against SETVI” value is 90%. For the same compound, in the assay with Veronica persica [12], the “Pre-emergence action against VERPE” value is 100%. The “Post-emergence action against ECHCG” value in the assay with Echinochloa crus-galli [13] stood at 100%. In addition, in the assay on Bassia scoparia, the “Post-emergence action against KCHSC” value stood at 90%. For the same compound, the “Post-emergence action against MATIN” value in [15] was 100%. In addition, in [16], the “Pre-emergence action against MATIN” value came out at 90%. Also, the “Post-emergence action against DIGSA” value with Digitaria sanguinalis [17] was 100%. In the assay on Alopecurus myosuroides [18], the “Pre-emergence action against ALOMY” value is 100%.

For the origin of these results see patent US20230126893A1, “[(1,4,5-TRISUBSTITUTED-1H-PYRAZOL-3-YL)SULFANYL]ACETIC ACID DERIVATIVES, SALTS THEREOF, AND USE THEREOF AS ACTIVE HERBICIDAL INGREDIENTS” (BAYER AKTIENGESELLSCHAFT, priority 2020, published 2023).
